Data as given in PubChem BioAssay (NCI).
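Step 1: Grow cells in 96-well plates. Step 2: Expose to compound for 48 hours at 5 concentrations. Step 3: Interpolate endpoints linearly; if unreached, use highest concentration. GI50 marks 50% less growth. Definition used: TGI = concentration required for complete inhibition of growth.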

Assays:
Test in all cases: growth of human tumour cells (NCI), 48 h
MDA-MB-435 = tested on: MDA-MB-435
EKVX NSCLC = tested on: EKVX NSCLC
HL-60(TB) leukemia = tested on: HL-60(TB) leukemia
DU-145 prostate = tested on: DU-145 prostate
ACHN renal = tested on: ACHN renal
SNB-19 CNS = tested on: SNB-19 CNS
NCI-H460 lung = tested on: NCI-H460 lung
SF-295 CNS = tested on: SF-295 CNS
CCRF-CEM leukemia = tested on: CCRF-CEM leukemia
K-562 leukemia = tested on: K-562 leukemia
HOP-62 NSCLC = tested on: HOP-62 NSCLC
UO-31 renal = tested on: UO-31 renal
MALME-3M melanoma = tested on: MALME-3M melanoma
A498 renal = tested on: A498 renal
BT-549 breast = tested on: BT-549 breast
MDA-MB-231 breast = tested on: MDA-MB-231 breast
OVCAR-3 ovarian = tested on: OVCAR-3 ovarian
SK-MEL-5 melanoma = tested on: SK-MEL-5 melanoma
RPMI-8226 leukemia = tested on: RPMI-8226 leukemia
HOP-92 NSCLC = tested on: HOP-92 NSCLC
OVCAR-8 ovarian = tested on: OVCAR-8 ovarian
KM12 colon = tested on: KM12 colon
HT29 colon = tested on: HT29 colon
SR leukemia = tested on: SR leukemia
NCI-H226 lung = tested on: NCI-H226 lung
NCI-H522 lung = tested on: NCI-H522 lung
HCT-116 colon = tested on: HCT-116 colon
A549 NSCLC = tested on: A549 NSCLC
PC-3 prostate = tested on: PC-3 prostate
HCC-2998 colon = tested on: HCC-2998 colon
SF-268 CNS = tested on: SF-268 CNS
SN12C renal = tested on: SN12C renal
HS 578T breast = tested on: HS 578T breast
786-0 renal = tested on: 786-0 renal
SK-MEL-2 melanoma = tested on: SK-MEL-2 melanoma
RXF 393 renal = tested on: RXF 393 renal
IGROV1 ovarian = tested on: IGROV1 ovarian
OVCAR-4 ovarian = tested on: OVCAR-4 ovarian
SNB-75 CNS = tested on: SNB-75 CNS
COLO 205 colon = tested on: COLO 205 colon
NCI-H23 lung = tested on: NCI-H23 lung
HCT-15 colon = tested on: HCT-15 colon
LOX IMVI melanoma = tested on: LOX IMVI melanoma
TK-10 renal = tested on: TK-10 renal
M14 melanoma = tested on: M14 melanoma
CAKI-1 renal = tested on: CAKI-1 renal
MOLT-4 leukemia = tested on: MOLT-4 leukemia
SK-OV-3 ovarian = tested on: SK-OV-3 ovarian
UACC-62 melanoma = tested on: UACC-62 melanoma
NCI/ADR-RES ovarian = tested on: NCI/ADR-RES ovarian
U251 CNS = tested on: U251 CNS
SF-539 CNS = tested on: SF-539 CNS
T-47D breast = tested on: T-47D breast
OVCAR-5 ovarian = tested on: OVCAR-5 ovarian
SK-MEL-28 melanoma = tested on: SK-MEL-28 melanoma
UACC-257 melanoma = tested on: UACC-257 melanoma
SW-620 colon = tested on: SW-620 colon
MCF7 breast = tested on: MCF7 breast

## N#Cc1c(Br)n(C2OC(CO)C(O)C2O)c2ncnc(N)c12 (stereo unspecified)
MDA-MB-435
  GI50: 1.24 µM
  TGI: > 46.2 µM
EKVX NSCLC
  GI50: 4.62 µM
  TGI: 74.7 µM
HL-60(TB) leukemia
  GI50: 0.608 µM
  TGI: 2.59 µM
DU-145 prostate
  GI50: 0.844 µM
  TGI: 23.9 µM
ACHN renal
  GI50: 1.21 µM
  TGI: > 90.9 µM
SNB-19 CNS
  GI50: 4.35 µM
  TGI: > 75.9 µM
NCI-H460 lung
  GI50: 0.574 µM
  TGI: 4.56 µM
SF-295 CNS
  GI50: 2.07 µM
  TGI: 30.7 µM
CCRF-CEM leukemia
  GI50: 0.241 µM
  TGI: 3.87 µM
K-562 leukemia
  GI50: 1.07 µM
  TGI: > 47.4 µM
HOP-62 NSCLC
  GI50: 4.09 µM
  TGI: > 100 µM
UO-31 renal
  GI50: 2.25 µM
  TGI: 59.5 µM
MALME-3M melanoma
  GI50: 2.53 µM
  TGI: 20 µM
A498 renal
  GI50: 2.64 µM
  TGI: 20.9 µM
BT-549 breast
  GI50: 1.58 µM
  TGI: 15 µM
MDA-MB-231 breast
  GI50: 3.82 µM
  TGI: > 79.9 µM
OVCAR-3 ovarian
  GI50: 1.6 µM
  TGI: 34.1 µM
SK-MEL-5 melanoma
  GI50: 2.68 µM
  TGI: 7 µM
RPMI-8226 leukemia
  GI50: 1.26 µM
  TGI: 6.69 µM
HOP-92 NSCLC
  GI50: 0.738 µM
  TGI: 4.02 µM
OVCAR-8 ovarian
  GI50: 1.59 µM
  TGI: > 100 µM
KM12 colon
  GI50: 1.71 µM
  TGI: > 40.1 µM
HT29 colon
  GI50: 0.885 µM
  TGI: > 36.2 µM
SR leukemia
  GI50: 0.827 µM
  TGI: 4.98 µM
NCI-H226 lung
  GI50: 9.16 µM
  TGI: > 100 µM
NCI-H522 lung
  GI50: 4.62 µM
  TGI: 14.8 µM
HCT-116 colon
  GI50: 0.685 µM
  TGI: > 77.7 µM
A549 NSCLC
  GI50: 1.13 µM
  TGI: > 27 µM
PC-3 prostate
  GI50: 0.811 µM
  TGI: 18.6 µM
HCC-2998 colon
  GI50: 2.15 µM
  TGI: 26.3 µM
SF-268 CNS
  GI50: 1.5 µM
  TGI: 18.9 µM
SN12C renal
  GI50: 2.69 µM
  TGI: > 100 µM
HS 578T breast
  GI50: 0.696 µM
  TGI: 8.54 µM
786-0 renal
  GI50: 6.45 µM
  TGI: > 100 µM
SK-MEL-2 melanoma
  GI50: 5.3 µM
  TGI: 14.1 µM
RXF 393 renal
  GI50: 0.847 µM
  TGI: 6.8 µM
IGROV1 ovarian
  GI50: 0.333 µM
  TGI: 1.76 µM
OVCAR-4 ovarian
  GI50: 2.11 µM
  TGI: 71.8 µM
SNB-75 CNS
  GI50: 3.98 µM
  TGI: 30.7 µM
COLO 205 colon
  GI50: 0.675 µM
  TGI: 3.07 µM
NCI-H23 lung
  GI50: 3.63 µM
  TGI: 41.1 µM
HCT-15 colon
  GI50: 0.695 µM
  TGI: 46.3 µM
LOX IMVI melanoma
  GI50: 1.13 µM
  TGI: 16.4 µM
TK-10 renal
  GI50: 4.02 µM
  TGI: 42 µM
M14 melanoma
  GI50: 2.18 µM
  TGI: 17.8 µM
CAKI-1 renal
  GI50: 0.677 µM
  TGI: 2.91 µM
MOLT-4 leukemia
  GI50: 0.723 µM
  TGI: 7.02 µM
SK-OV-3 ovarian
  GI50: 4.29 µM
  TGI: > 45.4 µM
UACC-62 melanoma
  GI50: 2.64 µM
  TGI: 6.09 µM
NCI/ADR-RES ovarian
  GI50: 1.43 µM
  TGI: 52.5 µM
U251 CNS
  GI50: 1.85 µM
  TGI: > 100 µM
SF-539 CNS
  GI50: 3.91 µM
  TGI: 19.3 µM
T-47D breast
  GI50: 0.498 µM
  TGI: 21 µM
OVCAR-5 ovarian
  GI50: 4.17 µM
  TGI: > 100 µM
SK-MEL-28 melanoma
  GI50: 2.14 µM
  TGI: 12.7 µM
UACC-257 melanoma
  GI50: 4.72 µM
  TGI: 38.5 µM
SW-620 colon
  GI50: 0.74 µM
  TGI: 32.7 µM
MCF7 breast
  GI50: 0.631 µM
  TGI: 4.01 µM
